Source: US12097261B2, “CDK2 degraders and uses thereof” (Kymera Therapeutics, Inc., priority 2021, dated 2024)

Tests used:
[1] = biological target: T1, CDK2 (Homo sapiens, UniProt P24941); experiment: CDK2 degradation by immunoblotting in OVCAR-8 cells; assay type: cell-based; details: for DC50: 24 h
T1 construct: endogenous in cells; host or cells: OVCAR-8
Protocol: (§1) CDK2 and CDK1 Degradation by Immunoblotting
(§2) Ovarian cancer cell line OVCAR-8 were cultured in 12-well plates in complete growth medium. A serial dilution of each compound was added to individual wells from a 2× stock solution, and cells were cultured for 24 hours. Cells were collected by centrifugation, and cell pellets lysed with addition of chilled RIPA buffer supplemented with protease/phosphatase inhibitors followed by incubation for 20 minutes on ice. Lysates were clarified by centrifugation and 5×SDS loading buffer was added to the supernatant followed by heating to 100° C. for 10 minutes. An aliquot of the samples were separated by SDS-PAGE and transferred to a nitrocellulose membrane. Immunoblotting was performed according to standard procedures using anti-CDK2 primary antibody (Abcam ab32147) at 1:1000 dilution and IRDye 800CW goat anti-Rabbit secondary antibody (LICOR) and imaged using a LICOR Odyssey instrument. Blots were stained with anti-beta-Actin primary antibody (Cell Signaling Technology mAb #4970) for normalization. The normalized CDK2/Actin values were calculated as a percent of DMSO treated cells and plotted to determine the concentration at which 50% of CDK2 signal is decreased (DC50). The determination of CDK1 degradation was determined similarly using anti-CDK1 primary antibody (Abcam ab131450).

[2] = biological target: T2, CDK1 (Homo sapiens, UniProt P06493); experiment: CDK1 degradation by immunoblotting in OVCAR-8 cells; assay type: cell-based; details: 24 h
T2 construct: endogenous in cells; host or cells: OVCAR-8
Protocol: as §1, §2

T2 sequence (P06493 whole entry): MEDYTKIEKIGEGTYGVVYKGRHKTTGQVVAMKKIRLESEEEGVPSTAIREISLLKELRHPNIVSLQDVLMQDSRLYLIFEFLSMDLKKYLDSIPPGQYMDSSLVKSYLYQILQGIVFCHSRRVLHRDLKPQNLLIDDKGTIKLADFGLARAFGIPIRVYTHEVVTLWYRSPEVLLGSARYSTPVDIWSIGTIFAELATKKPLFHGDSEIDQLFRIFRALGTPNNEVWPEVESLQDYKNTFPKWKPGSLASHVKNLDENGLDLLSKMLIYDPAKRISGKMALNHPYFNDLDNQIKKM

Structure (SMILES)	DC50 [1]	DC50 [2]	CDK2 DC50, (OVCAR-8, 24 h) [1]
C[C@@]1(O)CCC[C@H]1n1c(=O)c(C(F)F)cc2cnc(NC3CCN(C(=O)COCCOCCOCCOCCNc4cccc5c4C(=O)N(C4CCC(=O)NC4=O)C5=O)CC3)nc21 (stereo partly drawn) [I-24]			inactive
CC(C)NC(=O)O[C@@H]1CC[C@H](c2cc(NC(=O)c3ccnn3CCOCCOCCOCCCc3ccc4c(c3)n(C)c(=O)n4C3CCC(=O)NC3=O)[nH]n2)C1 (stereo partly drawn) [I-83]	10 to 100 nM	> 5000 nM	
Cn1c(=O)n(C2CCC(=O)NC2=O)c2ccc(CCCOCCOCCOCCOCC(=O)N3CCC(Nc4ncc5cc(C(F)F)c(=O)n([C@@H]6CCC[C@@]6(C)O)c5n4)CC3)cc21 (stereo partly drawn) [I-20]			inactive
Cc1cc(S(=O)(=O)NCCOCCOCCCc2cccc3c2n(C)c(=O)n3C2CCC(=O)NC2=O)ccc1Nc1ncc2cc(C(F)F)c(=O)n([C@@H]3CCC[C@@]3(C)O)c2n1 (stereo partly drawn) [I-8]	10 to 100 nM	> 5000 nM	
Cc1cc(S(=O)(=O)NCCOCCOCCCc2ccc3c(c2)n(C)c(=O)n3C2CCC(=O)NC2=O)ccc1Nc1ncc2cc(C(F)F)c(=O)n([C@@H]3CCC[C@@]3(C)O)c2n1 (stereo partly drawn) [I-5]	< 10 nM	> 5000 nM	
Cn1c(=O)n(C2CCC(=O)NC2=O)c2cccc(CCCCCCCCC(=O)N3CCC(Nc4ncc5cc(C(F)F)c(=O)n([C@@H]6CCC[C@@]6(C)O)c5n4)CC3)c21 (stereo partly drawn) [I-23]			inactive
Cn1c(=O)n(C2CCC(=O)NC2=O)c2cccc(CCCCCCCCCCCC(=O)N3CCC(Nc4ncc5cc(C(F)F)c(=O)n([C@@H]6CCC[C@@]6(C)O)c5n4)CC3)c21 (stereo partly drawn) [I-26]			inactive
Cn1c(=O)n(C2CCC(=O)NC2=O)c2ccc(CCCCCCCCC(=O)N3CCC(Nc4ncc5cc(C(F)F)c(=O)n([C@@H]6CCC[C@@]6(C)O)c5n4)CC3)cc21 (stereo partly drawn) [I-22]			inactive
CC(C)NC(=O)O[C@@H]1CC[C@H](c2cc(NC(=O)c3cnn(CCCCCCCCCC#Cc4cccn5c(N6CCC(=O)NC6=O)cnc45)c3)n[nH]2)C1 [I-68]	10 to 100 nM	> 5000 nM	
C[C@@]1(O)CCC[C@H]1n1c(=O)c(C(F)F)cc2cnc(NC3CCN(S(=O)(=O)CCCCCCCCCCNc4cccc5c4C(=O)N(C4CCC(=O)NC4=O)C5=O)CC3)nc21 (stereo partly drawn) [I-15]	10 to 100 nM	100 to 1000 nM	
Cc1cc(S(=O)(=O)NCCOCCOCCOCCOCCNc2cccc3c2C(=O)N(C2CCC(=O)NC2=O)C3=O)ccc1Nc1ncc2cc(C(F)F)c(=O)n([C@@H]3CCC[C@@]3(C)O)c2n1 (stereo partly drawn) [I-17]	10 to 100 nM	> 5000 nM	
C[C@@]1(O)CCC[C@H]1n1c(=O)c(C(F)F)cc2cnc(NC3CCN(C(=O)COCCOCCNc4cccc5c4C(=O)N(C4CCC(=O)NC4=O)C5=O)CC3)nc21 (stereo partly drawn) [I-27]			inactive
Cn1c(=O)n(C2CCC(=O)NC2=O)c2cccc(CCCOCCOCCOCCOCC(=O)N3CCC(Nc4ncc5cc(C(F)F)c(=O)n([C@@H]6CCC[C@@]6(C)O)c5n4)CC3)c21 (stereo partly drawn) [I-21, 3-(4-(1-(4-((6-(Difluoromethyl)-8-((1R,2R)-2-hydroxy-2-methylcyclopentyl)-7-oxo-7,8-dihydropyrido[2,3-d]pyrimidin-2-yl)amino)piperidin-1-yl)-1-oxo-3,6,9,12-tetraoxapentadecan-15-yl)-3-methyl-2-oxo-2,3-dihydro-1H-benzo[d]imidazol-1-yl)piperidine-2,6-dione]			inactive
CC(C)NC(=O)O[C@@H]1CC[C@H](c2cc(NC(=O)c3cnn(CCOCCOCCCc4ccc5c(c4)n(C)c(=O)n5C4CCC(=O)NC4=O)c3)[nH]n2)C1 (stereo partly drawn) [I-85]			inactive
C[C@@]1(O)CCC[C@H]1n1c(=O)c(C(F)F)cc2cnc(NC3CCN(C(=O)CCCCCCCNc4cccc5c4C(=O)N(C4CCC(=O)NC4=O)C5=O)CC3)nc21 (stereo partly drawn) [I-28]			inactive
Cn1c(=O)n(C2CCC(=O)NC2=O)c2cccc(CCCOCCOCC(=O)N3CCC(Nc4ncc5cc(C(F)F)c(=O)n([C@@H]6CCC[C@@]6(C)O)c5n4)CC3)c21 (stereo partly drawn) [I-29]			inactive
CC(C)NC(=O)O[C@@H]1CC[C@H](c2cc(NC(=O)c3cnn(C4CCC(CN(C)C5CCN(Cc6cccc7c6n(C)c(=O)n7C6CCC(=O)NC6=O)CC5)CC4)c3)n[nH]2)C1 (stereo partly drawn) [I-84, (1R,3S)-3-(5-(1-(4-(((1-((1-(2,6-dioxopiperidin-3-yl)-3-methyl-2-oxo-2,3-dihydro-1H-benzo[d]imidazol-4-yl)methyl)piperidin-4-yl)(methyl)amino)methyl)cyclohexyl)-1H-pyrazole-4-carboxamido)-1H-pyrazol-3-yl)cyclopentyl isopropylcarbamate]	1000 to 5000 nM		
Cn1c(=O)n(C2CCC(=O)NC2=O)c2ccc(CCCCCCCCCCCC(=O)N3CCC(Nc4ncc5cc(C(F)F)c(=O)n([C@@H]6CCC[C@@]6(C)O)c5n4)CC3)cc21 (stereo partly drawn) [I-25]			inactive

Now from value to compound:

DC50 [1]	DC50 [2]	CDK2 DC50, (OVCAR-8, 24 h) [1]	Structure (SMILES)
10 to 100 nM	> 5000 nM		CC(C)NC(=O)O[C@@H]1CC[C@H](c2cc(NC(=O)c3cnn(CCCCCCCCCCCc4ccn5c(N6CCC(=O)NC6=O)cnc5c4)c3)[nH]n2)C1 [I-142]
		inactive	CC(C)NC(=O)O[C@@H]1CC[C@H](c2cc(NC(=O)c3ccnn3CCCCCCCCCCCCc3cccc4c3n(C)c(=O)n4C3CCC(=O)NC3=O)n[nH]2)C1 (stereo partly drawn) [I-89]
10 to 100 nM	1000 to 5000 nM		CC(C)NC(=O)O[C@@H]1CC[C@H](c2cc(NC(=O)c3cnn(CCCCCCCCCCCc4cccc5c4n(C)c(=O)n5C4CCC(=O)NC4=O)c3)[nH]n2)C1 (stereo partly drawn) [I-97]
1000 to 5000 nM	> 5000 nM		CC(C)NC(=O)O[C@H]1CC[C@@H](c2cc(NC(=O)c3ccnn3CCN3CCN(CCOCCCc4ccc5c(c4)n(C)c(=O)n5C4CCC(=O)NC4=O)CC3)[nH]n2)C1 (stereo partly drawn) [I-151]
10 to 100 nM	> 5000 nM		CC(C)NC(=O)O[C@H]1CC[C@@H](c2cc(NC(=O)c3ccnn3CCOCCOCCOCCOCCCc3ccc4c(c3)n(C)c(=O)n4C3CCC(=O)NC3=O)n[nH]2)C1 (stereo partly drawn) [I-149]
< 10 nM	100 to 1000 nM		CC(C)NC(=O)O[C@H]1CC[C@@H](c2cc(NC(=O)c3cc(COCCCCCCCCCc4ccn5c(N6CCC(=O)NC6=O)cnc5c4)nn3C)[nH]n2)C1 [I-145]
< 10 nM	1000 to 5000 nM		Cc1cc(S(=O)(=O)NCCOCCOCCCc2ccc3c(c2)n(C)c(=O)n3C2CCC(=O)NC2=O)ccc1Nc1ncc2ccc(=O)n(C3CCCC3)c2n1 (stereo not drawn) [I-146]
< 10 nM	> 5000 nM		CC(C)NC(=O)O[C@@H]1CC[C@H](c2cc(NC(=O)c3cc(COCCCCCCCCCc4ccc5c(c4)n(C)c(=O)n5[C@H]4CCC(=O)NC4=O)nn3C)n[nH]2)C1 [I-99]
10 to 100 nM	100 to 1000 nM		CC(C)NC(=O)O[C@@H]1CC[C@H](c2cc(NC(=O)Cc3cnn(CCCCCCCCCc4ccc5c(c4)n(C)c(=O)n5C4CCC(=O)NC4=O)c3)[nH]n2)C1 (stereo partly drawn) [I-102]
10 to 100 nM	1000 to 5000 nM		CC(C)NC(=O)O[C@@H]1CC[C@H](c2cc(NC(=O)Cc3cnn(CCCCCCCCCc4cccc5c4n(C)c(=O)n5C4CCC(=O)NC4=O)c3)[nH]n2)C1 (stereo partly drawn) [I-104]
		inactive	CC(C)NC(=O)O[C@@H]1CC[C@H](c2cc(NC(=O)Cc3cnn(C4CCC(CN(C)C5CCN(Cc6cccc7c6n(C)c(=O)n7C6CCC(=O)NC6=O)CC5)CC4)c3)n[nH]2)C1 (stereo partly drawn) [I-93]
		inactive	CC(C)NC(=O)O[C@@H]1CC[C@H](c2cc(NC(=O)c3ccnn3CCCCCCCCCc3ccc4c(c3)n(C)c(=O)n4C3CCC(=O)NC3=O)n[nH]2)C1 (stereo partly drawn) [I-87]
